US10597398B2, “Suppression and regeneration promoting effect of low molecular weight compound on cancer and fibrosis” (NATIONAL UNIVERSITY CORPORATION TOTTORI UNIVERSITY, priority 2015, dated 2020)

Tests used:
[1] = system: mesenchymal stem cell; assay: Hepatocyte differentiation-inducing effect, summary statements on Example 4 (readout not specified); type: cell-based, human; conditions: low concentration
From the text: Albumin, a hepatocyte marker, was used as an indicator, and RNA was collected from cells treated with each compound. Next, a hepatocyte differentiation-inducing effect was examined by real-time RT-PCR. The concentrations of the respective compounds were as described in FIG. 35. Each control sample used was 0.1% DMSO, a solvent for each compound.
By using urea synthesis, a hepatocyte function, as an indicator, a hepatocyte differentiation-inducing effect of each compound was investigated.
The cells treated with each compound were subjected to immunofluorescence analysis of albumin, a hepatocyte marker, to investigate a hepatocyte differentiation-inducing effect. The concentrations of the respective compounds were as described in FIG. 37. Each control sample used was 0.1% DMSO, a solvent for each compound.
By using glycogen synthesis, a hepatocyte function, as an indicator, a hepatocyte differentiation-inducing effect of each compound was investigated.

[2] = system: liver fibrosis; assay: Carbon tetrachloride-induced fibrosis model mouse (Sirius Red staining); type: in vivo, C57BL/6 male mice; conditions: carbon tetrachloride 8 weeks, drug for last 4 weeks, IC-2 10.6 mg/kg i.p. 3 times a week, vs vehicle group
Procedure: To induce anesthesia, 1-mL disposable syringe with a 27-G needle was used to intraperitoneally inject, into a mouse, 1 μL/g body weight of a systemic anesthetic somnopentyl (Kyoritsuseiyaku Corporation, Tokyo).
The liver tissue sample, as so resected, was fixed in 4% paraformaldehyde (Nacalai tesque, Kyoto) at room temperature for 16 h, embedded in paraffin, and sectioned with a microtome to prepare tissue sections, which were then stained by using a Picosirius Red Stain Kit (Polysciences Inc., Warrington, Pa.) in accordance with the attached protocol. After that, a BZ-9000 (KEYENCE CORPORATION, Osaka) was used to take 10 photographs of light-field enlarged images (100×) per tissue sample. The ratio of the red-stained fiber area to the total tissue area of each photographed image was quantified to calculate a fibrosis-positive area ratio.
Seven-week-old C57BL/6 male mice (Japan SLC, Inc., Shizuoka) were subjected to 1-week preparatory rearing and healthy ones were then used. The mice were housed in animal cages at a room temperature of 22±1° C. and a humidity of 50±5% throughout the preparatory rearing and experimental period and were given ad libitum access to food and water.
A microsyringe (ITO CORPORATION, Shizuoka) was used to intraperitoneally administer 0.2 ml/kg of carbon tetrachloride (CCl4; Wako Pure Chemical Industries, Ltd.) 3 times a week for 4, 6, or 8 weeks. […]

[3] = system: CD44high DLD-1 cells; assay: CD44high cells in DLD-1 cells (FCM analysis); type: cell-based, human; conditions: 48 h, 50 μM IC-2, 0.5 or 5 μM 5-FU, compared with control
Procedure: In addition, DLD-1 cells were seeded at 1×10^6 cells/10-cm cell culture dish. After 24 h, the cells were treated with 0.5 or 5 μM of 5-FU or 50 μM of IC-2. At additional 48 h, the cells were harvested. As a primary antibody, used was a mouse anti-human CD44 antibody (Abcam Ltd., Cambridge, UK). Then, Alexa Fluor 488-labeled goat anti-mouse IgG (H+L) (Life Technologies Corp., Carlsbad, Calif.) was used. After that, a MoFlo XDP (Beckman Coulter Inc., Fullerton, Calif.) was used for analysis.

[4] = Liver cancer model mouse, body weight; type: in vivo, mice; conditions: 30 mg/kg 5-FU or 50 mg/kg IC-2 intraperitoneally every three days
Procedure: CD44-positive HuH-7 cells were subcutaneously transplanted in mice. Next, the engrafted mice were divided into 3 groups (DMSO group: 5 mice; 5-FU group: 4 mice; and IC-2 group: 4 mice). Then, DMSO was added to prepare 30 mg/kg of 5-FU and 50 mg/kg of IC-2 such that each liquid volume was 100 μL; and 100% DMSO, a solvent for each drug, was used as a control sample. Subsequently, each drug was dosed intraperitoneally every three days. The body weight of each mouse and the long and short diameters of a tumor were measured every three days. The tumor volume was calculated by using the following equation: Tumor volume=Long diameter×(Short diameter)^2×0.5. The volume at Day 0 was used to normalize each tumor volume, and then a graph was created. To fully evaluate a 5-FU effect, the 5-FU dose was set to an amount 2 times the regular amount 15 mg/kg used in research articles. The concentration of IC-2 corresponding to a concentration at which Wnt/β-catenin signaling was inhibited in vitro was calculated. Then, the concentration was doubled to set an IC-2 dose.

| hepatocyte-inducing effect at low concentration [1] | SMILES | fibrosis area (Sirius Red staining) [2] | percentage of CD44high cells [3] | body weight [4] |
| --- | --- | --- | --- | --- |
| exerted a hepatocyte-inducing effect | COc1ccc(COc2ccc(CNC(=O)N3CCC(=O)N4C(Cc5ccccc5)C(=O)N(Cc5cccc6ccccc56)CC34)cc2)cc1 (stereo not shown) [IC-2-OPMB] | – | – | – |
| – | O=C1C(Cc2ccccc2)N2C(=O)CCN(C(=O)NCc3ccccc3)C2CN1Cc1cccc2ccccc12 (stereo not shown) [IC-2] | decrease more than that of the vehicle group | significantly reduced the percentage of CD44^high cells | no change in the body weight |
